In US8138351B2, “Treatment of duchenne muscular dystrophy” (Summit Corporation PLC, priority 2007, dated 2012):

Test system: Utrophin A promoter linked to a luciferase reporter gene (H2K/mdx/Utro A reporter cell line)
Test: Luciferase reporter assay (murine H2K cells)
Format: cell-based, mouse
Conditions: final concentration of 10 μM, 48 hrs
Procedure: 1. Luciferase Reporter Assay (Murine […] Cells) The cell line used for the screen is an immortalized mdx mouse H2K cell line that has been stably transfected with a plasmid containing ≈5 kb fragment of the Utrophin A promoter including the first untranslated exon linked to a luciferase reporter gene (see FIG. 1). Under conditions of low temperature and interferon containing media, the cells remain as myoblasts. These are plated into 96 well plates and cultured in the presence of compound for three days. The level of luciferase is then determined by cell lysis and reading of the light output from the expressed luciferase gene utilising a plate luminometer. The H2K/mdx/Utro A Reporter Cell Line Maintenance The H2K/mdx/Utro A reporter cell line was passaged twice a week until ≦30% confluent. The cells were grown at 33° C. in the presence of 10% CO2. To remove the myoblasts for platting, they were incubated with Trypsin/EDTA until the monolayer started to detach. […] Cells were then lysed in situ following the manufacture's protocols (Promega Steady-Glo Luciferase Assay System (E2520), then counted for 10 seconds using a plate luminometer (Victor1420). Biological activity was assessed using the luciferase reporter assay in murine H2K cells, and is classified as follows: […]

## CCS(=O)(=O)c1ccc2oc(-c3ccc4ccccc4c3)nc2c1 [5-(ethylsulfonyl)-2-(naphthalen-2-yl)benzo[d]oxazole]
  Biological activity, luciferase reporter assay, relative to control: +++ (Between 301% and 400% relative to control)
